According to US20260335263A1, “USE OF TROPIC ACID AND DERIVATIVE THEREOF IN PREPARATION OF DRUG FOR TREATING PSORIASIS” (GUANGDONG PHARMACEUTICAL UNIVERSITY, priority 2022, published 2026):

Assays:
[1] = tested on: Psoriasis in Mice Induced by Imiquimod; assay: Histopathological examination (HE staining, epidermal thickness) of back skin of mice with imiquimod-induced psoriasis; assay type: in vivo, male Balb/c mice; details: day 7, HE staining, compared with the model group
From the text: 110 male Balb/c mice (8-10 weeks, 20-25 g each) were anesthetized by intraperitoneal injection of 10% chloral hydrate, and approximately 2 cm×4 cm of back hair was shaved off. […] On the 7th day, the skin lesions of the mice were photographed and recorded, after which the mice were euthanized and their back skin was taken for further use.
Histopathological examination: On the 7th day of modeling, the mice were euthanized, and the back skin of each group of mice was cut and fixed in 4% paraformaldehyde for 24 hours, embedded in paraffin, and sliced into 4 μm sections. HE staining, sealing, and observation of histopathological changes under microscope were performed, and the epidermal thickness was measured using the scale function of the cellSens standard.

[2] = tested on: Psoriasis in Mice Induced by Imiquimod; assay: Histomorphological observation (PASI scoring and day 7 photographs of back skin lesions) of psoriasis in mice induced by imiquimod; assay type: in vivo, male Balb/c mice; details: for skin lesion scores (overall score), high-dose: vs high-dose tropic acid, compound III P<0.01, compound IV P<0.05; for skin erythema score, low-dose / skin lesion scores (overall score), low-dose: low-dose 3 mg/kg·d by gavage; for skin erythema score, low-dose: compared with low-dose tropic acid, P<0.01; for skin lesion scores (overall score), low-dose: vs low-dose tropic acid; for therapeutic effect on back skin injury induced by imiquimod: overall conclusion, mouse model of psoriasis; for therapeutic effects compared with tropic acid: summary statement
From the text: 110 male Balb/c mice (8-10 weeks, 20-25 g each) were anesthetized by intraperitoneal injection of 10% chloral hydrate, and approximately 2 cm×4 cm of back hair was shaved off. The mice were randomly divided into 11 groups, with 10 mice in each group, including a blank control group, a model group, a positive drug group, a high-dose tropic acid group (A), a low-dose tropic acid group (B), a high-dose 4-hydroxy-α-(hydroxymethyl)phenylacetic acid group (C), a low-dose 4-hydroxy-α-(hydroxymethyl)phenylacetic acid group (D), a high-dose 3,4-dihydroxy-α-(hydroxymethyl)phenylacetic acid group (E), a low-dose 3,4-dihydroxy-α-(hydroxymethyl)phenylacetic acid group (F), a high-dose 3,4,5-trihydroxy-α-(hydroxymethyl)phenylacetic acid group (G), and a low-dose 3,4,5-trihydroxy-α-(hydroxymethyl)phenylacetic acid group (H) of. Except for the blank control group, which received no treatment, all other groups were treated with 50 mg of 5% imiquimod cream daily to prepare a psoriasis mouse model. All groups were administered simultaneously, with dosing twice daily, and the grouping and dosing regimen are detailed in Table 1. The treatment was continued for 6 days. On the 7th day, the skin lesions of the mice were photographed and recorded, after which the mice were euthanized and their back skin was taken for further use.
Histomorphological observation: Starting from the first day of modeling, the degree of erythema, scales, and inflammatory infiltration thickening on the back of mice were scored daily according to the PASI scoring criteria. The PAIS scoring criteria were as follows: 0-none; 1-mild; 2-moderate; 3-severe cases; 4-extremely severe. The more severe the degree of skin damage, the higher the score. The three points were summed to obtain the total PASI score. The average score of each group of mice were then plotted to create a trend line to observe the changes in skin lesions of each group of mice. Digital photography was used to record the skin lesions on the back of the mice in each group on the 7th day for observation and comparison.

[3] = Solubility observed in structural identification; assay type: physicochemical
[4] = high-dose 6 mg/kg·d by gavage, after 6 days, compared with high-dose tropic acid, P<0.05

| solubility in methanol ([3]; methanol) | solubility in water ([3]; water) | Compound | incomplete skin keratinization [1] | thickness of the stratum spinosum ([1]; positive drug = dexamethasone 5 mg/kg·d by gavage) | degree of inflammatory infiltration and thickening of the skin [2, 4] | degree of scale reduction [2, 4] | skin erythema score, high-dose [2, 4] | skin lesion scores (overall score), high-dose ([2]; high-dose 6 mg/kg·d by gavage) | skin erythema score, low-dose ([2]; after 6 days) | skin lesion scores (overall score), low-dose ([2]; P<0.05) | therapeutic effect on back skin injury induced by imiquimod [2] | therapeutic effects compared with tropic acid [2] |
| --- | --- | --- | --- | --- | --- | --- | --- | --- | --- | --- | --- | --- |
| – | – | C[C@@H]1C[C@H]2[C@@H]3CCC4=CC(=O)C=C[C@]4(C)[C@@]3(F)[C@@H](O)C[C@]2(C)[C@@]1(O)C(=O)CO [positive drug, dexamethasone] | significantly improvements | significantly reduced | – | – | – | – | – | – | – | – |
| easily soluble | easily soluble | O=C(O)C(CO)c1ccc(O)c(O)c1 (stereo not drawn) [compound III, 3,4-dihydroxy-α-(hydroxymethyl)phenylacetic acid] | – | – | significant decrease | superior | significantly reduced | superior | significantly reduced | superior | best therapeutic effect | more significant therapeutic effects than tropic acid |
| – | – | O=C(O)C(CO)c1cc(O)c(O)c(O)c1 (stereo not drawn) [compound IV, 3,4,5-trihydroxy-α-(hydroxymethyl)phenylacetic acid] | – | – | significant decrease | superior | – | superior | significantly reduced | superior | best therapeutic effect | more significant therapeutic effects than tropic acid |
